Experiment [1] has as its system hepatitis C replicon. In words: hepatitis C replicon EC50 assay. Type of experiment: cell-based. The note with it: Hepatitis C virus. From the text:
NS3-NS4 inhibition activity can be determined using known assay methods.
For orientation: In antiviral work, replicon cells carry a viral genome segment that copies itself.

Experiment [2] has as its target NS3/NS4 complexes (Hepatitis C virus genotype 1a, UniProt P27958). Kind of experiment: biochemical. From the text:
NS3-NS4 inhibition activity can be determined using known assay methods. For example, NS3/NS4 complexes may be formed and inhibitory concentrations of test compounds determined as described in U.S. Patent Application Publication Number 2007/0054842 paragraph numbers 1497-1509, which is incorporated herein by reference in its entirety. Similarly, hepatitis C replicon EC50 may be determined using known assay methods such as described in U.S. Patent Application Publication Number 2007/0054842 paragraph numbers 1510-1515, which is incorporated herein by reference in its entirety. Assays may be conducted at ambient temperature (23° C.) in assay buffer containing 50 mM Tris-HCl, pH 7.5, 15% glycerol, 0.6 mM Lauryldimethylamine Oxide (LDAO), 25 μM NS4A peptide, and 10 mM Dithiothreitol (DTT).

Where [3] appears, read: NS3-NS4 activity, 23° C., pH 7.5, 25 μM NS4A peptide, read-out: IC50.
[4] abbreviates: hepatitis C replicon, read-out: EC50.

Read-outs that look alike come from different tables or passages of the source.

NS3/NS4 complexes, sequence (P27958 1027-1657, one chain of several): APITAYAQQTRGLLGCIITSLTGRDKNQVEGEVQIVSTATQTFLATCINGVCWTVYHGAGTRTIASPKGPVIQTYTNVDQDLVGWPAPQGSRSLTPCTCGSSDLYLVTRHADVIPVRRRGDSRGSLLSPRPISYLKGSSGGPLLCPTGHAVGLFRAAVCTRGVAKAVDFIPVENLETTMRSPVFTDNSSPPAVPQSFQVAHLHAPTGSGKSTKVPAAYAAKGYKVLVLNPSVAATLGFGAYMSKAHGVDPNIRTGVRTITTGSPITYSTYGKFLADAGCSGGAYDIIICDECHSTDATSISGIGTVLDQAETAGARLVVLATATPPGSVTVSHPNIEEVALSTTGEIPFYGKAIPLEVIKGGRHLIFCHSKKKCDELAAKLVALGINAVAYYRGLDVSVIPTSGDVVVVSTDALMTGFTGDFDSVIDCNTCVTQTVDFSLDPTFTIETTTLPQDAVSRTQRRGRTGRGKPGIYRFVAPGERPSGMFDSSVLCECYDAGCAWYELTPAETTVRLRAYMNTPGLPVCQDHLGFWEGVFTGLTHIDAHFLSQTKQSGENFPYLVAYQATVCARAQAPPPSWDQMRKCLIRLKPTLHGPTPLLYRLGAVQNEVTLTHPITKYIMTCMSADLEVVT

`CC(C)(C)OC(=O)N[C@H]1CCCCC/C=C\[C@@H]2C[C@@]2(C(=O)NS(=O)(=O)C2(C)CC2)NC(=O)[C@@H]2C[C@@H](Oc3ccnc4c3CCCC4)CN2C1=O` [Compound 403]: in experiment [1], the EC50 (in general, the concentration needed to bring the measured effect to its halfway point) was 10 to 100 nM. Also, the half-maximal inhibitory concentration (IC50) – broadly, the point on the concentration scale where inhibition reaches its midpoint – in experiment [2] (setting [3]) is below 10 nM.
For `CC(C)n1c(O[C@@H]2C[C@H]3C(=O)N[C@]4(C(=O)NS(=O)(=O)C5CC5)C[C@H]4/C=C\CCCCC[C@H](NC(=O)OC(C)(C)C)C(=O)N3C2)nc2c(-c3nc(C4CCCCC4)cs3)cccc21` [Compound 172], the EC50 in experiment [1] (setting [4]) is below 10 nM. The IC50 in experiment [2] (setting [3]) was below 10 nM.
In the case of `COc1ccccc1-c1csc(-c2cccc3c2nc(O[C@@H]2C[C@H]4C(=O)N[C@]5(C(=O)NS(=O)(=O)N(C)C)C[C@H]5/C=C\CCCCC[C@H](NC(=O)OC(C)(C)C)C(=O)N4C2)n3C(C)C)n1` [Compound 131], the EC50 in experiment [1] (setting [4]) lay in the range of 10 to 100 nM. For the same molecule, the IC50 in experiment [2] (setting [3]) is below 10 nM.
Take `Cc1ccc(Cc2csc(-c3cccc4c3nc(O[C@@H]3C[C@H]5C(=O)N[C@]6(C(=O)NS(=O)(=O)N(C)C)C[C@H]6/C=C\CCCCC[C@H](NC(=O)OC(C)(C)C)C(=O)N5C3)n4C(C)C)n2)cc1` [Compound 146]: the EC50 in experiment [1] (setting [4]) was below 10 nM. Moreover, the IC50 in experiment [2] (setting [3]) is below 10 nM.
The molecule `CC(C)(C)OC(=O)N[C@H]1CCCCC/C=C\[C@@H]2C[C@@]2(C(=O)NS(=O)(=O)C2(C)CC2)NC(=O)[C@@H]2C[C@@H](Oc3cc(-c4ccccc4)nc4c3CCCC4)CN2C1=O` [Compound 402] had an EC50 in experiment [1] below 10 nM. Also, in experiment [2] (setting [3]), the 50% inhibitory concentration (IC50) is below 10 nM.
For the molecule `CC#CC1(S(=O)(=O)NC(=O)[C@@]23C[C@H]2/C=C\CCCCC[C@H](NC(=O)OC(C)(C)C)C(=O)N2C[C@H](Oc4nc5c(-c6nc(C7CCCCC7)cs6)cccc5n4C(C)C)C[C@H]2C(=O)N3)CC1` [Compound 189], the EC50 in experiment [1] (setting [4]) is below 10 nM. The IC50 in experiment [2] (setting [3]) was below 10 nM.
In the case of `CC(C)n1c(O[C@@H]2C[C@H]3C(=O)N[C@]4(C(=O)NS(=O)(=O)C5(C)CC5)C[C@H]4/C=C\CCCCC[C@H](NC(=O)OC(C)(C)C)C(=O)N3C2)nc2c(-c3nc(Cc4cccc(Br)c4)cs3)cccc21` [Compound 117], in experiment [1] (setting [4]), the EC50 was in the range of 10 to 100 nM. In addition, the IC50 in experiment [2] (setting [3]) is below 10 nM.
On the same counts, the results for `CC(C)n1c(O[C@@H]2C[C@H]3C(=O)N[C@]4(C(=O)NS(=O)(=O)C5(C)CC5)C[C@H]4/C=C\CCCCC[C@H](NC(=O)OC(C)(C)C)C(=O)N3C2)nc2c(-c3nc(C(F)(F)F)cs3)cccc21` [Compound 174] are below 10 nM and below 10 nM.
The corresponding values for `CC(C)(C)OC(=O)N[C@H]1CCCCC/C=C\[C@@H]2C[C@@]2(C(=O)NS(=O)(=O)C2(C)CC2)NC(=O)[C@@H]2C[C@@H](Oc3nc(-c4ccccc4)nc4c3CCCC4)CN2C1=O` [Compound 302] are below 10 nM and below 10 nM.
The corresponding values for `CC(C)n1c(O[C@@H]2C[C@H]3C(=O)N[C@]4(C(=O)NS(=O)(=O)N(C)C)C[C@H]4/C=C\CCCCC[C@H](NC(=O)OC(C)(C)C)C(=O)N3C2)nc2c(-c3nc(-c4cccc(Cl)c4)cs3)cccc21` [Compound 130] are 10 to 100 nM and below 10 nM.
For the molecule `COc1cccc(Cc2csc(-c3cccc4c3nc(O[C@@H]3C[C@H]5C(=O)N[C@]6(C(=O)NS(=O)(=O)C7(C)CC7)C[C@H]6/C=C\CCCCC[C@H](NC(=O)OC(C)(C)C)C(=O)N5C3)n4C(C)C)n2)c1` [Compound 123], the EC50 in experiment [1] (setting [4]) was below 10 nM. Also, the IC50 in experiment [2] (setting [3]) is below 10 nM.
With `CC(C)(C)OC(=O)N[C@H]1CCCCC/C=C\[C@@H]2C[C@@]2(C(=O)NS(=O)(=O)C2(C)CC2)NC(=O)[C@@H]2C[C@@H](Oc3nc4cccc(-c5nc(-c6ccccc6)cs5)c4s3)CN2C1=O` [Compound 201], the concentration giving a half-maximal response (EC50) in experiment [1] (setting [4]) was below 10 nM. For the same molecule, the IC50 in experiment [2] (setting [3]) was below 10 nM.
In experiment [1], `CC(C)n1c(O[C@@H]2C[C@H]3C(=O)N[C@]4(C(=O)NS(=O)(=O)C5(C)CC5)C[C@H]4/C=C\CCCCC[C@H](N)C(=O)N3C2)nc2c(-c3csc(N4CCCCC4)n3)cccc21` [Compound 170] showed an EC50 of 10 to 100 nM. Besides, in experiment [2] (setting [3]), the IC50 is below 10 nM.
`CC(C)n1c(O[C@@H]2C[C@H]3C(=O)N[C@]4(C(=O)NS(=O)(=O)C5(C)CC5)C[C@H]4/C=C\CCCCC[C@H](NC(=O)OC(C)(C)C)C(=O)N3C2)nc2c(-c3nc(-c4ccc(Br)cc4)cs3)cccc21` [Compound 106]: the EC50 in experiment [1] (setting [4]) is above 100 nM. Moreover, in experiment [2] (setting [3]), the IC50 was below 10 nM.
On the same counts, the results for `CC(C)n1c(O[C@@H]2C[C@H]3C(=O)N[C@]4(C(=O)NS(=O)(=O)N(C)C)C[C@H]4/C=C\CCCCC[C@H](NC(=O)OC(C)(C)C)C(=O)N3C2)nc2c(-c3nc(-c4ccc(Cl)c(Cl)c4)cs3)cccc21` [Compound 138] are above 100 nM and below 10 nM.
With `CC(C)n1c(O[C@@H]2C[C@H]3C(=O)N[C@]4(C(=O)NS(=O)(=O)C5(C)CC5)C[C@H]4/C=C\CCCCC[C@H](NC(=O)OC(C)(C)C)C(=O)N3C2)nc2c(-c3nc(-c4ccc(OC(F)(F)F)cc4)cs3)cccc21` [Compound 110], the EC50 in experiment [1] (setting [4]) is above 100 nM. In addition, the IC50 in experiment [2] (setting [3]) was below 10 nM.
On the same counts, the results for `CC(C)n1c(O[C@@H]2C[C@H]3C(=O)N[C@]4(C(=O)NS(=O)(=O)C5(C)CC5)C[C@H]4/C=C\CCCCC[C@H](NC(=O)OC(C)(C)C)C(=O)N3C2)nc2c(-c3nc(-c4ccc5c(c4)OCCO5)cs3)cccc21` [Compound 112] are below 10 nM and below 10 nM.
On to `CC(C)(C)OC(=O)N[C@H]1CCCCC/C=C\[C@@H]2C[C@@]2(C(=O)NS(=O)(=O)C2(C)CC2)NC(=O)[C@@H]2C[C@@H](Oc3nc(-c4ccccc4)cc4c3CCCC4)CN2C1=O` [Compound 404], for which, in experiment [1] (setting [4]), the concentration for a half-maximal effect (EC50) is above 100 nM. For the same molecule, in experiment [2] (setting [3]), the IC50 is below 10 nM.
Regarding `CC(C)n1c(O[C@@H]2C[C@H]3C(=O)N[C@]4(C(=O)NS(=O)(=O)C5(C)CC5)C[C@H]4/C=C\CCCCC[C@H](NC(=O)OC(C)(C)C)C(=O)N3C2)nc2c(-c3nc(-c4ccc(F)c(F)c4)cs3)cccc21` [Compound 108], the EC50 in experiment [1] (setting [4]) is below 10 nM. For the same molecule, the IC50 in experiment [2] (setting [3]) was below 10 nM.
For `CC(C)c1csc(-c2cc(O[C@@H]3C[C@H]4C(=O)N[C@]5(C(=O)NS(=O)(=O)C6(C)CC6)C[C@H]5/C=C\CCCCC[C@H](N)C(=O)N4C3)ccn2)n1` [Compound 602], the EC50 in experiment [1] (setting [4]) is above 100 nM. In experiment [2] (setting [3]), the half-inhibitory concentration (IC50) is below 10 nM.
On the same counts, the results for `CC(C)n1c(O[C@@H]2C[C@H]3C(=O)N[C@]4(C(=O)NS(=O)(=O)C5(C)CC5)C[C@H]4/C=C\CCCCC[C@H](NC(=O)OC(C)(C)C)C(=O)N3C2)nc2c(-c3csc(C(F)(F)F)n3)cccc21` [Compound 176] are below 10 nM and below 10 nM.
`CC(C)n1c(O[C@@H]2C[C@H]3C(=O)N[C@]4(C(=O)NS(=O)(=O)C5(C)CC5)C[C@H]4/C=C\CCCCC[C@H](NC(=O)OC(C)(C)C)C(=O)N3C2)nc2c(-c3nc(C4CCCCC4)cs3)cccc21` [Compound 179] came in with an EC50 in experiment [1] below 10 nM. For the same molecule, the IC50 in experiment [2] (setting [3]) is below 10 nM.
On to `CC(C)n1c(O[C@@H]2C[C@H]3C(=O)N[C@]4(C(=O)NS(=O)(=O)C5(C)CC5)C[C@H]4/C=C\CCCCC[C@H](NC(=O)OC(C)(C)C)C(=O)N3C2)nc2c(-c3cnccn3)cccc21` [Compound 126], for which the EC50 in experiment [1] (setting [4]) was below 10 nM. Besides, the IC50 in experiment [2] (setting [3]) is below 10 nM.
For `CC(C)c1csc(-c2nc3c(c(O[C@@H]4C[C@H]5C(=O)N[C@]6(C(=O)NS(=O)(=O)C7(C)CC7)C[C@H]6/C=C\CCCCC[C@H](N)C(=O)N5C4)n2)CCCC3)n1` [Compound 304], in experiment [1], the EC50 is above 100 nM. Further, the IC50 in experiment [2] (setting [3]) lay in the range of 10 to 100 nM.
With `COc1ccccc1-c1csc(-c2cccc3c2nc(O[C@@H]2C[C@H]4C(=O)N[C@]5(C(=O)NS(=O)(=O)C6(C)CC6)C[C@H]5/C=C\CCCCC[C@H](NC(=O)OC(C)(C)C)C(=O)N4C2)n3C(C)C)n1` [Compound 102], the concentration giving a half-maximal response (EC50) in experiment [1] (setting [4]) is below 10 nM. The IC50 in experiment [2] (setting [3]) is below 10 nM.
In experiment [1], `C#CC1(S(=O)(=O)NC(=O)[C@@]23C[C@H]2/C=C\CCCCC[C@H](NC(=O)OC(C)(C)C)C(=O)N2C[C@H](Oc4nc5c(-c6nc(C7CCCCC7)cs6)cccc5n4C(C)C)C[C@H]2C(=O)N3)CC1` [Compound 188] returned an EC50 below 10 nM. The same molecule yielded an IC50 in experiment [2] below 10 nM.
`CC(C)n1c(O[C@@H]2C[C@H]3C(=O)N[C@]4(C(=O)NS(=O)(=O)C5(C)CC5)C[C@H]4/C=C\CCCCC[C@H](NC(=O)OC(C)(C)C)C(=O)N3C2)nc2c(-c3nc(Cc4cccc(C(F)(F)F)c4)cs3)cccc21` [Compound 119]: in experiment [1] (setting [4]), the EC50 fell in the range of 10 to 100 nM. In addition, in experiment [2] (setting [3]), the IC50 is below 10 nM.
On the same counts, the results for `CC(C)c1csc(-c2cc3c(c(O[C@@H]4C[C@H]5C(=O)N[C@]6(C(=O)NS(=O)(=O)C7(C)CC7)C[C@H]6/C=C\CCCCC[C@H](NC(=O)OC(C)(C)C)C(=O)N5C4)n2)CCCC3)n1` [Compound 405] are above 100 nM and below 10 nM.
On the same counts, the results for `CC(C)n1c(O[C@@H]2C[C@H]3C(=O)N[C@]4(C(=O)NS(=O)(=O)N(C)C)C[C@H]4/C=C\CCCCC[C@H](NC(=O)OC(C)(C)C)C(=O)N3C2)nc2c(-c3nc(-c4ccc(C(C)(C)C)cc4)cs3)cccc21` [Compound 143] are 10 to 100 nM and below 10 nM.
For the molecule `Cc1cccc(Cc2csc(-c3cccc4c3nc(O[C@@H]3C[C@H]5C(=O)N[C@]6(C(=O)NS(=O)(=O)N(C)C)C[C@H]6/C=C\CCCCC[C@H](NC(=O)OC(C)(C)C)C(=O)N5C3)n4C(C)C)n2)c1` [Compound 144], the EC50 in experiment [1] (setting [4]) was below 10 nM. In experiment [2] (setting [3]), the IC50 was below 10 nM.
As to `CC(C)n1c(O[C@@H]2C[C@H]3C(=O)N[C@]4(C(=O)NS(=O)(=O)N(C)C)C[C@H]4/C=C\CCCCC[C@H](NC(=O)OC(C)(C)C)C(=O)N3C2)nc2c(-c3csc(N4CCCC4)n3)cccc21` [Compound 158], in experiment [1] (setting [4]), the EC50 was below 10 nM. Besides, in experiment [2] (setting [3]), the 50% inhibitory concentration (IC50) is below 10 nM.

Values taken from patent US20120101032A1, “NOVEL MACROCYCLIC INHIBITORS OF HEPATITIS C VIRUS REPLICATION” (priority 2010, published 2012).
